Test results published in the NIST ThermoML archive (doi:10.1016/j.tca.2014.10.015).
Several values for one entry are separate records, joined by “and”; a condition that tells them apart may be missing. Equal values may be shown once.

Conditions: Liquid; for vapor or sublimation pressure: Transpiration method; for mass density: 293 K, 101.33 kPa, Pycnometric method

CCCCCCCCN=[N+]=[N-] [1-azidooctane]
Conditions	mass density [kg/m3]	vapor or sublimation pressure
–	840	–
276.2 K	–	0.00625 kPa
279.8 K	–	0.00904 kPa
282.5 K	–	0.01172 kPa
285.8 K	–	0.01548 kPa
289.4 K	–	0.02119 kPa
292.2 K	–	0.02751 kPa
293.2 K	–	0.02911 kPa
296.2 K	–	0.03707 kPa
300.2 K	–	0.04808 kPa
302.1 K	–	0.05805 kPa
303.1 K	–	0.06504 kPa
307 K	–	0.08345 kPa
310 K	–	0.1089 kPa
313.9 K	–	0.1355 kPa
317.9 K	–	0.188 kPa
320.9 K	–	0.2406 kPa
321.8 K	–	0.2385 kPa
323.9 K	–	0.2592 kPa and 0.2683 kPa
325.8 K	–	0.3237 kPa and 0.3236 kPa and 0.3135 kPa

CCCCCCCCCCN=[N+]=[N-] [1-decyl azide]
Conditions	mass density [kg/m3]	vapor or sublimation pressure [kPa]
–	870	–
299.1 K	–	0.00431
304 K	–	0.00666
309 K	–	0.01017
314 K	–	0.01489
318.9 K	–	0.02152
324 K	–	0.03305
329 K	–	0.04744
333.9 K	–	0.06769
339 K	–	0.0914
344.1 K	–	0.1347
